From PMC8138013, “Rational design of innate defense regulator peptides as tumor vaccine adjuvants” (NPJ Vaccines, 2021)

Assays:
C57BL/6 mice = assay: Leukocyte recruitment to peritoneal lavage; assay type: in vivo, mouse; conditions: C57BL/6, 200 μg i.p., 24 h post-injection, N = 5, vs saline
Protocol: C57BL/6 mice (N = 5) were intraperitoneally injected with 200 μg DP7, DP8, or DP10. An equal volume of sterile saline served as a control. Cells in the peritoneal lavage were collected and counted at 24 h postinjection. To analyze the recruitment of leukocytes, cells were stained with PE-anti-mouse-GR-1(clone RB6-8C5; BD Biosciences Cat# 553128), APC-anti-mouse-F4/80 (clone T45-2342; BD Biosciences Cat# 566787) or PE-anti-CD11b (clone M1/70; BD Biosciences Cat# 557397) at 4 °C for 30 min and then detected using a BD FACSCalibur (BD Biosciences, San Jose, CA). Neutrophils, inflammatory monocytes and macrophages were gated as Gr1^+F4/80^−, F4/80^+Gr1^+, and F4/80^+CD11b^+ cells, respectively.

BMDCs [1] = assay: BMDC maturation surface markers (flow cytometry); assay type: cell-based, mouse; conditions: CD11c+ BMDCs, 16 h, DP7 40 µg/ml, CpG 20 µg/ml
Protocol: To study the effect of the CpG/DP7 complex on BMDCs, BMDCs were incubated with DP7 (40 µg/ml), CpG (20 µg/ml) or the CpG/DP7 combination for 16 h, stained with APC-anti-Mouse CD11c (Clone HL3; BD Biosciences Cat# 550261), FITC-anti-mouse-CD40 (Clone 3/23; BD Biosciences Cat# 561845), PerCP-Cy5.5-anti-mouse-CD80(clone 16-10A1; BD Biosciences Cat# 560526) or FITC-anti-mouse-CD86 (clone GL1; BD Biosciences Cat# 561962). BMDCs were gated as CD11c^+ and analyzed for CD40, CD80, CD86 expression by NovoExpress software (ACEA Biosciences, Inc.).

BMDCs [2] = assay: RNA-Seq analysis of BMDCs challenged with DP7; assay type: cell-based, mouse; conditions: DP7 30 min vs control
JAWSII cells [3] = assay: RT-qPCR of transcription factor mRNA after DP7, with or without chemical inhibitors; assay type: cell-based, mouse; conditions: for effect of inhibitor on DP7-induced mRNA expression of transcription factors: pretreatment 1 h at 10 μM (BIBR796 5 μM) or PTX 200 ng/ml 3 h, then DP7 30 min, compared to DP7 alone
Protocol: [The procedure below names another cell line; the source lists this cell line under the same test.] Small molecule inhibitors were employed to elucidate the upstream signaling pathways involved in the expression of 6 transcription factors: selumetinib (MEK1/2 inhibitor), BIBR796 (p38α inhibitor), sp600125 (pan JNK inhibitor), XMD8-92 (Erk5 inhibitor), sotrastaurin (PKCθ inhibitor), AS-605240 (PI3Kγ inhibitor), LY294002 (PI3Kα/β/γ inhibitor) and pertussis toxin (PTX, Gi protein inhibitor). BMDCs were pretreated with 10 μM selumetinib, 5 μM BIBR796, 10 μM sp600125, 10 μM XMD8-92, 10 μM sotrastaurin, 10 μM AS-605240, and 10 μM LY294002 at 37 °C for 1 h and with 200 ng/ml PTX at 37 °C for 3 h. BMDCs were exposed to DP7 at 37 °C for 30 min, and then the mRNA expression of the transcription factors was examined by RT-qPCR.
Total RNA was isolated using TRIzol reagent (Takara, Otsu, Japan), further purified by isopropanol/ethanol precipitation and finally dissolved in RNase-Free H2O. cDNA was prepared with 5× All-In-One MasterMix with the AccuRT Genomic DNA Removal Kit (Abm Canada Inc., Milton, ON, Canada) and employed as a template to assess the expression of various genes with EvaGreen 2× qPCR MasterMix (Abm Canada Inc., Milton, ON, Canada). The results were analyzed according to the relative expression normalized against β-actin.

JAWSII cells [4] = assay: Intracellular calcium measurement (Fluo 3-AM); assay type: cell-based, mouse; conditions: DP7 40 µg/ml, 15 and 30 min
Protocol: JAWSII cells (1 × 10^5) were seeded into 96-well clear–bottom black plates (Corning, New York, USA.) with six replicate wells per condition and cultured at 37 °C overnight. The cells were washed once with Hank’s buffer followed by incubation with the calcium fluorescence probe Fluo 3-AM (5 μM; excitation at 506 nm and emission at 526 nm) (Beyotime, Hangzhou, China) in Hank’s buffer at 37 °C for 30 min. After treatment, the cells were washed once with Hank’s buffer and subsequently stimulated with DP7 (40 µg/ml) for 15 min or 30 min. Fluorescence was measured by a Celligo® imaging cytometer. The Ca^2+ levels are represented by the mean fluorescence intensity of individual cells.

GPR35 = assay: Receptor internalization assay; assay type: cell-based, mouse; conditions: BMDCs, DP7 40 μg/ml, 30 min, immunofluorescence; similar in JASWII and RAW264.7 cells
Protocol: BMDCs (1 × 10^5) were plated on a microscope cover glass and cultured at 37 °C overnight. The next day, the cells were stimulated with 40 μg/ml DP7 at 37 °C for 30 min and then fixed in 4% paraformaldehyde in PBS at room temperature for 15 min. After washing with PBS 3 times, the BMDCs were blocked and permeabilized in buffer containing 0.1% bovine serum albumin (BSA), 0.5% Triton X-100, and 4% goat serum in PBS for 1 h. Afterward, the BMDCs were incubated with goat anti-GPR35 (clone M-14; Santa Cruz Biotechnology Cat# sc-79507; 1:100) in 3% BSA/PBS buffer at 4 °C for 16 h, followed by staining with the FITC-labeled anti-goat IgG (H + L) secondary antibody (1:100, ZSGB-BIO, Beijing, China) in 3% BSA/PBS buffer at 37 °C for 1 h. BMDCs were finally stained with DAPI and stored at 4 °C until imaging. Confocal imaging was performed with an LSM 800 Zeiss confocal microscope.

JAWSII cells [5] = assay: Western blotting of Erk1/2 phosphorylation in JAWSII cells; assay type: cell-based, mouse
Description: Protein extracts from each sample were separated by 12% SDS-PAGE and transferred onto polyvinylidene fluoride membranes (Millipore, Billerica, MA). The membranes were blocked with 5% non-fat milk. Then, the protein bands were probed with primary antibodies against NF-κB p65 XP® Rabbit mAb (clone D14E12; Cell Signaling Technology Cat#8242), Phospho-NF-κB p65 (Ser536) Rabbit mAb (clone 93H1; Cell Signaling Technology Cat#3033), Erk1/2 Rabbit mAb (clone 137F5; Cell Signaling Technology Cat#4695) and Phospho- Erk1/2 (Thr202/Tyr204) XP® Rabbit mAb (clone D13.14.4E; Cell Signaling Technology Cat#4370) overnight at 4 °C. Then the membranes were incubated with horseradish peroxidase-conjugated goat anti-rabbit IgG (1:3000; Cell Signaling Technology Cat#7074). The blots derive from the same experiment were processed in parallel. The full, uncropped blot with molecular weight marker are shown in Supplementary Fig. 9.

Compound: VQWRIRVAVIRK [DP7]
- number of macrophages in the peritoneal lavage (C57BL/6 mice): modest but nonsignificant increase
- numbers of monocytes and neutrophils in the peritoneal lavage (C57BL/6 mice): significant increase
- CD40-FITC positive BMDCs (BMDCs [1]): 1.1%
- CD80-PerCP-Cy5.5 positive BMDCs (BMDCs [1]): 28.9%
- CD86-FITC positive BMDCs (BMDCs [1]): 36.2%
- Fold change, Akap9 (BMDCs [2]): 2.08
- Fold change, Arap2 (BMDCs [2]): 2.02
- Fold change, Atxn1l (BMDCs [2]): 2.04
- Fold change, Btg2 (BMDCs [2]): 2.47
- Fold change, Ccdc77 (BMDCs [2]): 2.06
- Fold change, Ccno (BMDCs [2]): 2.1
- Fold change, Clec4b2 (BMDCs [2]): 2.82
- Fold change, Depdc5 (BMDCs [2]): 2.01
- Fold change, Dgkh (BMDCs [2]): 2.4
- Fold change, Egr1 (BMDCs [2]): 16.63
- Fold change, Egr2 (BMDCs [2]): 2.4
- Fold change, Egr3 (BMDCs [2]): 15.7
- Fold change, Ethe1 (BMDCs [2]): 2.89
- Fold change, F3 (BMDCs [2]): 2.23
- Fold change, Fbxw7 (BMDCs [2]): 2.25
- Fold change, Fos (BMDCs [2]): 6.34
- Fold change, Fosb (BMDCs [2]): 114.79
- Fold change, Gm6377 (BMDCs [2]): 2.68
- Fold change, Gm9159 (BMDCs [2]): 2.03
- Fold change, Gm12359 (BMDCs [2]): 2.13
- Fold change, Gpr35 (BMDCs [2]): 2.2
- Fold change, Gpr52 (BMDCs [2]): 3.32
- Fold change, Gsta1 (BMDCs [2]): 3.08
- Fold change, Ier2 (BMDCs [2]): 3.15
- Fold change, Igj (BMDCs [2]): 2.68
- Fold change, Jmjd1c (BMDCs [2]): 2.09
- Fold change, Klhl15 (BMDCs [2]): 3.73
- Fold change, Lmo1 (BMDCs [2]): 2.81
- Fold change, Lrrc40 (BMDCs [2]): 2.19
- Fold change, Nr4a1 (BMDCs [2]): 19.81
- Fold change, Nr4a2 (BMDCs [2]): 2.02
- Fold change, Osm (BMDCs [2]): 2.42
- Fold change, Parp6 (BMDCs [2]): 2.3
- Fold change, Perp (BMDCs [2]): 2.05
- Fold change, Phf8 (BMDCs [2]): 2.17
- Fold change, Plk3 (BMDCs [2]): 2.75
- Fold change, Prph (BMDCs [2]): 2.22
- Fold change, Prrg4 (BMDCs [2]): 2.05
- Fold change, Slc38a9 (BMDCs [2]): 2.15
- Fold change, Suco (BMDCs [2]): 2.19
- Fold change, Szt2 (BMDCs [2]): 2.01
- Fold change, Tjp1 (BMDCs [2]): 3.44
- Fold change, Tmem51 (BMDCs [2]): 2.05
- Fold change, Tnfaip6 (BMDCs [2]): 2.01
- Fold change, Trib1 (BMDCs [2]): 2.69
- expression of Egr1, Egr2, Egr3, c-Fos, Fosb and Nr4a1 mRNA (JAWSII cells [3]; DP7 40 μg/ml, 30 min, vs nonstimulated): elevated expression
- intracellular Ca2+ levels (JAWSII cells [4]): elevation
- GPR35 localisation after stimulation (GPR35): internalization of GPR35 into the cytoplasm
- Erk1/2 phosphorylation (JAWSII cells [5]; JAWSII cells, DP7 30 and 60 min, western blotting): enhancement

Compound: O=C1NC(=O)/C(=C\c2ccc3nccnc3c2)S1 [AS-605240]
- effect of inhibitor on DP7-induced mRNA expression of transcription factors (JAWSII cells [3]): significantly suppressed

Compound: CCOc1cc(N2CCC(O)CC2)ccc1Nc1ncc2c(n1)N(C)c1ccccc1C(=O)N2C [XMD8-92]
- effect of inhibitor on DP7-induced mRNA expression of transcription factors (JAWSII cells [3]): little or no inhibitory effect

Compound: Cn1cnc2c(F)c(Nc3ccc(Br)cc3Cl)c(C(=O)NOCCO)cc21 [selumetinib]
- effect of inhibitor on DP7-induced mRNA expression of transcription factors (JAWSII cells [3]): significantly suppressed

Compound: Oc1c2ccccc2c2c3c(cccc13)N=N2 [sp600125]
- effect of inhibitor on DP7-induced mRNA expression of transcription factors (JAWSII cells [3]): little or no inhibitory effect

Compound: O=c1cc(N2CCOCC2)oc2c(-c3ccccc3)cccc12 [LY294002]
- effect of inhibitor on DP7-induced mRNA expression of transcription factors (JAWSII cells [3]): little or no inhibitory effect

Compound: Cc1ccc(-n2nc(C(C)(C)C)cc2NC(=O)Nc2ccc(OCCN3CCOCC3)c3ccccc23)cc1 [BIBR796]
- effect of inhibitor on DP7-induced mRNA expression of transcription factors (JAWSII cells [3]): little or no inhibitory effect

Compound: CN1CCN(c2nc(C3=C(c4c[nH]c5ccccc45)C(=O)NC3=O)c3ccccc3n2)CC1 [sotrastaurin]
- effect of inhibitor on DP7-induced mRNA expression of transcription factors (JAWSII cells [3]): significantly suppressed

Compound: pertussis toxin [PTX, reference compound]
- effect of inhibitor on DP7-induced mRNA expression of transcription factors (JAWSII cells [3]): significantly suppressed
- effect on activation of pErk1/2 by DP7 (JAWSII cells [5]; JAWSII cells pretreated with PTX, then DP7 30 and 60 min): partially abolished
